The values that follow come from ChEMBL document CHEMBL5715260, “Selectivity Literature for EUbOPEN Chemogenomic Library” (2024).

In test [1] the target is T1, Hepatocyte nuclear factor 4-alpha (Homo sapiens) (UniProt P41235).
T1 sequence (whole entry): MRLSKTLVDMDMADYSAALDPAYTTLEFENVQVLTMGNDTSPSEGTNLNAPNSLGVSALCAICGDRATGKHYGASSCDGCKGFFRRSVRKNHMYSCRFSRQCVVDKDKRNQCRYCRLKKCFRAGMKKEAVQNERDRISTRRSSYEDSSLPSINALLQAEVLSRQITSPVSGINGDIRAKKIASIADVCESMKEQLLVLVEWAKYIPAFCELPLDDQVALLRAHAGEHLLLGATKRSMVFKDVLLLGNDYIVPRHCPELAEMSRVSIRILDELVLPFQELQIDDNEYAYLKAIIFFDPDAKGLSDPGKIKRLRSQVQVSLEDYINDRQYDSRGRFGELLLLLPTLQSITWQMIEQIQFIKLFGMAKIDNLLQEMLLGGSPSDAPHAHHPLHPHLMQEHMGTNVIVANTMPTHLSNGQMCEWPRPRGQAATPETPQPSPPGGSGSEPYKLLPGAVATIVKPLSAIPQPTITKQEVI
Kind of test: Selectivity interaction (Reporter gene assay) EUB0001143a HNF4A. More on the design: recommended concentration 1 uM. In general terms: Reporter assays use an easily measured gene product as a stand-in for the process of interest.

Test [2] deals with T2, Nuclear receptor subfamily 2 group C member 1 (Homo sapiens) (UniProt P13056).
T2 sequence (whole entry): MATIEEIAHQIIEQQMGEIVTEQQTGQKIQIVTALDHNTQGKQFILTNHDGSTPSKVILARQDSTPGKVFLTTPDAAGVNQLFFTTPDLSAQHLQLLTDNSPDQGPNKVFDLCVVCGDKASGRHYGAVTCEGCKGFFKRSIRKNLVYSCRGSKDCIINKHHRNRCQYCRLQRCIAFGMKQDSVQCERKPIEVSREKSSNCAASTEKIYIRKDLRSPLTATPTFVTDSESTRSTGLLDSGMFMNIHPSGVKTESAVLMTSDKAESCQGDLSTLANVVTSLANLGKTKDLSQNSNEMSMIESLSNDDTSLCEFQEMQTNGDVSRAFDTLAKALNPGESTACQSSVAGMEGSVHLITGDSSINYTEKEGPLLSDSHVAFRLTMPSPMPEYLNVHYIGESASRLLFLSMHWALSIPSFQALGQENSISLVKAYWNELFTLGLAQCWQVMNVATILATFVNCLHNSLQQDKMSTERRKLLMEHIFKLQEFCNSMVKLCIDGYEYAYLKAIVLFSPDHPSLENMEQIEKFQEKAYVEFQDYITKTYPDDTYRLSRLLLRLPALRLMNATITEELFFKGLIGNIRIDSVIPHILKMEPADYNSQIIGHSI
As to the kind of experiment: Selectivity interaction (Reporter gene assay) EUB0001143a NR2C1. Also on record: recommended concentration 1 uM.

Test [3] has as its target Nuclear receptor subfamily 2 group E member 1 (Homo sapiens) (UniProt Q9Y466). As to the kind of experiment: Selectivity interaction (Reporter gene assay) EUB0001143a NR2E1. More on the design: recommended concentration 1 uM.
The target in test [4] is Nuclear receptor subfamily 4immunitygroup A member 1 (Homo sapiens) (UniProt P22736). Kind of test: Selectivity interaction (Reporter gene assay) EUB0001143a NR4A1. Also on record: recommended concentration 1 uM.
The target in test [5] is Steroidogenic factor 1 (Homo sapiens) (UniProt Q13285). Kind of test: Selectivity interaction (Reporter gene assay) EUB0001143a NR5A1. Also on record: recommended concentration 1 uM.
The target of test [6] is T3, Alpha trans-inducing protein (Human alphaherpesvirus 1) (UniProt A0A5J6DW59). As to the kind of experiment: Selectivity interaction (Reporter gene assay) EUB0001143a UL48. Also on record: recommended concentration 1 uM.
Test [7] addresses T4, Retinoic acid receptor RXR-alpha (Homo sapiens) (UniProt P19793).
T4 sequence (whole entry): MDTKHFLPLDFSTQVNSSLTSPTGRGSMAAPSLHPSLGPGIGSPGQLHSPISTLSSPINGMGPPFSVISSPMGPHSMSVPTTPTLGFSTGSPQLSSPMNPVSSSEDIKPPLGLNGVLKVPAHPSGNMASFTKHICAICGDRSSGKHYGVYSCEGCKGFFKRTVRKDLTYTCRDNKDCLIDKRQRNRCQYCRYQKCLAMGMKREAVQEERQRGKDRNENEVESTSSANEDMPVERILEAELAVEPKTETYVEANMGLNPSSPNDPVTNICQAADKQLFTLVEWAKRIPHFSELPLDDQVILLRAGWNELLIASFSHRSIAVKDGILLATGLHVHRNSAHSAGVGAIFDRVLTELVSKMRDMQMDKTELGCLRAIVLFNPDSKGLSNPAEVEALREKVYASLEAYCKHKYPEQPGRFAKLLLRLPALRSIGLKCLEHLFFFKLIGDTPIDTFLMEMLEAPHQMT
As to the kind of experiment: Selectivity interaction (Reporter gene assay) EUB0001143a RXRA. Also on record: recommended concentration 1 uM. The settings on record: reference bexarotene 1 uM, Selectivity number of off-targets 0.0, Selectivity number of targets 1.0, Source Knowledge inhouse.

The target in test [8] is T1, Hepatocyte nuclear factor 4-alpha (Homo sapiens). As to the kind of experiment: Selectivity interaction (Reporter gene assay) EUB0001144a HNF4A. Also on record: recommended concentration 1 uM.
In test [9] the target is T2, Nuclear receptor subfamily 2 group C member 1 (Homo sapiens). Kind of test: Selectivity interaction (Reporter gene assay) EUB0001144a NR2C1. More on the design: recommended concentration 1 uM.
The target in test [10] is Nuclear receptor subfamily 2 group E member 1 (Homo sapiens) (UniProt Q9Y466). As to the kind of experiment: Selectivity interaction (Reporter gene assay) EUB0001144a NR2E1. Also on record: recommended concentration 1 uM.
Test [11] addresses Nuclear receptor subfamily 4immunitygroup A member 1 (Homo sapiens) (UniProt P22736). As to the kind of experiment: Selectivity interaction (Reporter gene assay) EUB0001144a NR4A1. More on the design: recommended concentration 1 uM.
Test [12] concerns the target Steroidogenic factor 1 (Homo sapiens) (UniProt Q13285). As to the kind of experiment: Selectivity interaction (Reporter gene assay) EUB0001144a NR5A1. More on the design: recommended concentration 1 uM.
Test [13] addresses T3, Alpha trans-inducing protein (Human alphaherpesvirus 1). As to the kind of experiment: Selectivity interaction (Reporter gene assay) EUB0001144a UL48. More on the design: recommended concentration 1 uM.
Test [14] has as its target T4, Retinoic acid receptor RXR-alpha (Homo sapiens). Kind of test: Selectivity interaction (Reporter gene assay) EUB0001144a RXRA. Conditions: reference bexarotene 1 uM, Selectivity number of off-targets 0.0, Selectivity number of targets 1.0, Source Knowledge inhouse. More on the design: recommended concentration 1 uM.
The target in test [15] is T1, Hepatocyte nuclear factor 4-alpha (Homo sapiens). As to the kind of experiment: Selectivity interaction (Reporter gene assay) EUB0001150a HNF4A. Also on record: recommended concentration 10 uM.
Test [16] addresses T2, Nuclear receptor subfamily 2 group C member 1 (Homo sapiens). As to the kind of experiment: Selectivity interaction (Reporter gene assay) EUB0001150a NR2C1. Also on record: recommended concentration 10 uM.
Test [17] concerns the target Nuclear receptor subfamily 2 group E member 1 (Homo sapiens) (UniProt Q9Y466). As to the kind of experiment: Selectivity interaction (Reporter gene assay) EUB0001150a NR2E1. More on the design: recommended concentration 10 uM.
The target in test [18] is Nuclear receptor subfamily 4immunitygroup A member 1 (Homo sapiens) (UniProt P22736). Kind of test: Selectivity interaction (Reporter gene assay) EUB0001150a NR4A1. More on the design: recommended concentration 10 uM.
Test [19] concerns the target Steroidogenic factor 1 (Homo sapiens) (UniProt Q13285). Kind of test: Selectivity interaction (Reporter gene assay) EUB0001150a NR5A1. Also on record: recommended concentration 10 uM.
Test [20] deals with T3, Alpha trans-inducing protein (Human alphaherpesvirus 1). Kind of test: Selectivity interaction (Reporter gene assay) EUB0001150a UL48. More on the design: recommended concentration 10 uM.
In test [21] the target is T4, Retinoic acid receptor RXR-alpha (Homo sapiens). Kind of test: Selectivity interaction (Reporter gene assay) EUB0001150a RXRA. The settings on record: reference bexarotene 1 uM, Selectivity number of off-targets 0.0, Selectivity number of targets 1.0, Source Knowledge inhouse. Also on record: recommended concentration 10 uM.
For test [22], the target named is Peroxisome proliferator-activated receptor alpha (Homo sapiens) (UniProt Q07869). Kind of test: Selectivity interaction (Reporter gene assay) EUB0001149a PPARA. Also on record: recommended concentration 1 uM. The settings on record: screened at recom. conc., Selectivity number of off-targets 1.0, Selectivity number of targets 19.0, Source Knowledge inhouse.
Test [23] concerns the target T1, Hepatocyte nuclear factor 4-alpha (Homo sapiens). Kind of test: Selectivity interaction (Reporter gene assay) EUB0001149a HNF4A. More on the design: recommended concentration 1 uM.
Test [24] has as its target T2, Nuclear receptor subfamily 2 group C member 1 (Homo sapiens). Kind of test: Selectivity interaction (Reporter gene assay) EUB0001149a NR2C1. More on the design: recommended concentration 1 uM.
Test [25] concerns the target Nuclear receptor subfamily 2 group E member 1 (Homo sapiens) (UniProt Q9Y466). Kind of test: Selectivity interaction (Reporter gene assay) EUB0001149a NR2E1. More on the design: recommended concentration 1 uM.
In test [26] the target is Nuclear receptor subfamily 4immunitygroup A member 1 (Homo sapiens) (UniProt P22736). Kind of test: Selectivity interaction (Reporter gene assay) EUB0001149a NR4A1. Also on record: recommended concentration 1 uM.
In test [27] the target is Steroidogenic factor 1 (Homo sapiens) (UniProt Q13285). As to the kind of experiment: Selectivity interaction (Reporter gene assay) EUB0001149a NR5A1. More on the design: recommended concentration 1 uM.
Test [28] deals with T3, Alpha trans-inducing protein (Human alphaherpesvirus 1). As to the kind of experiment: Selectivity interaction (Reporter gene assay) EUB0001149a UL48. More on the design: recommended concentration 1 uM.
Test [29] deals with T4, Retinoic acid receptor RXR-alpha (Homo sapiens). As to the kind of experiment: Selectivity interaction (Reporter gene assay) EUB0001149a RXRA. More on the design: recommended concentration 1 uM. Conditions: reference bexarotene 1 uM, Selectivity number of off-targets 0.0, Selectivity number of targets 1.0, Source Knowledge inhouse.

Nuclear receptor subfamily 4immunitygroup A member 1 (Homo sapiens), sequence (P22736 whole entry): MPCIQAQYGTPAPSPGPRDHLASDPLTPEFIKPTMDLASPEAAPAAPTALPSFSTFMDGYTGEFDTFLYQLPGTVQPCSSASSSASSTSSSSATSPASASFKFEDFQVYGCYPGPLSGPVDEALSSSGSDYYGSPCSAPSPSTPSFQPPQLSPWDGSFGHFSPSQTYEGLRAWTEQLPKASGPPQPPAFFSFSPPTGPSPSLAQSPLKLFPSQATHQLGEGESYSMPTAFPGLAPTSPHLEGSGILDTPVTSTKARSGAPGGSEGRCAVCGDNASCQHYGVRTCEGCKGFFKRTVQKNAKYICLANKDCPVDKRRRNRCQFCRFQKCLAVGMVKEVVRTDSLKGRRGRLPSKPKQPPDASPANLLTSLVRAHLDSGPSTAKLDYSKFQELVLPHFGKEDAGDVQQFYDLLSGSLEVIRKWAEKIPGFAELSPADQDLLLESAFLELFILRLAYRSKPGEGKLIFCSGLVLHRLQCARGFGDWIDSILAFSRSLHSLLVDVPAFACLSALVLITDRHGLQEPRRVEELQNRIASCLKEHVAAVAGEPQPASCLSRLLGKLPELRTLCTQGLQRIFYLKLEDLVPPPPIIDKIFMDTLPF
T3 sequence (A0A5J6DW59 as listed by the source): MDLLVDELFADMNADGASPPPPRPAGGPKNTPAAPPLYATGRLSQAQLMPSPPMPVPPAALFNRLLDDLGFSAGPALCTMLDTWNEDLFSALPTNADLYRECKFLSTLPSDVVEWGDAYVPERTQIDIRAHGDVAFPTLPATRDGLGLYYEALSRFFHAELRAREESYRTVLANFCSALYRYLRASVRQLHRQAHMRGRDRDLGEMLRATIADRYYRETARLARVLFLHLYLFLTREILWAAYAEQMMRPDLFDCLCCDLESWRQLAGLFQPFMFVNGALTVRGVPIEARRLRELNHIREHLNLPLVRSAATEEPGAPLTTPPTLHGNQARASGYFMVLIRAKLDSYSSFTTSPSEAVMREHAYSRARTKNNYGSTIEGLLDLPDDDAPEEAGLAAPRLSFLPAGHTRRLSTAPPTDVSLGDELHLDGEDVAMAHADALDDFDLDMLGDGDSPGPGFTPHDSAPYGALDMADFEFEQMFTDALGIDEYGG
Steroidogenic factor 1 (Homo sapiens), sequence (Q13285 whole entry): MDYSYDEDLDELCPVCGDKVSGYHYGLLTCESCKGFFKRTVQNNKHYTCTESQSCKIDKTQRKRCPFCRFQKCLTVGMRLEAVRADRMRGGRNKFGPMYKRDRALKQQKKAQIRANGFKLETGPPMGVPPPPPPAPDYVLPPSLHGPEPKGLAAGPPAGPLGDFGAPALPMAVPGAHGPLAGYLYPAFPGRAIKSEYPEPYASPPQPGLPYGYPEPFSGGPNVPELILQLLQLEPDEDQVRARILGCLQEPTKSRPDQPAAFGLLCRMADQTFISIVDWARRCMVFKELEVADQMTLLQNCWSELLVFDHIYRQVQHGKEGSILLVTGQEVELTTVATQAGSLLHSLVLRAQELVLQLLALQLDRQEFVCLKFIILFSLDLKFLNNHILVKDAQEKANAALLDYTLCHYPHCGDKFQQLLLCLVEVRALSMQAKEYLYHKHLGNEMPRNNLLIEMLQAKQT
Nuclear receptor subfamily 2 group E member 1 (Homo sapiens), sequence (Q9Y466 whole entry): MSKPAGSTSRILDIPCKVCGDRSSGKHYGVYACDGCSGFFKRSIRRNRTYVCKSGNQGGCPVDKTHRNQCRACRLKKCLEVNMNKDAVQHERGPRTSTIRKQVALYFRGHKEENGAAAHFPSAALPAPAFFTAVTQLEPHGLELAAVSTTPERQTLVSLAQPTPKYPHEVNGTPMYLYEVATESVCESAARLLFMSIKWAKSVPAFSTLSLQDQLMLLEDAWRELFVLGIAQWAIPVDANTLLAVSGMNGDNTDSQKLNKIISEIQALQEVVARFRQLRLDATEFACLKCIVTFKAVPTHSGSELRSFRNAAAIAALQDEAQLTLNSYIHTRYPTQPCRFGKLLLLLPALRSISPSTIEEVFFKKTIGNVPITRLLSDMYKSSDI
Peroxisome proliferator-activated receptor alpha (Homo sapiens), sequence (Q07869 whole entry): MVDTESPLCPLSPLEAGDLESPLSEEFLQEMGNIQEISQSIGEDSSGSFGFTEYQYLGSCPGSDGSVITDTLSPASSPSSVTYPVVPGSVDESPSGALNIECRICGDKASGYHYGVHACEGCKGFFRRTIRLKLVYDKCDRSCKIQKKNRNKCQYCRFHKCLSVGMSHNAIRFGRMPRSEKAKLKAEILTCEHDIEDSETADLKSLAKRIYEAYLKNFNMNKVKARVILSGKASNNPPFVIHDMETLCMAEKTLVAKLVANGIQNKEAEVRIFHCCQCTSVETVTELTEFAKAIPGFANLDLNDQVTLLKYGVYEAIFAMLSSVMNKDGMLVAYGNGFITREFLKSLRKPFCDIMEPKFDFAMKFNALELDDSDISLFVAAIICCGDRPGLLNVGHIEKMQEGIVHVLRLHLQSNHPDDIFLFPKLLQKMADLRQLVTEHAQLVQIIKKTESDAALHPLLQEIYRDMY

Turning to `COc1cc2c(cc1CC=C(C)C)C(=O)C[C@@H](c1ccc(O)cc1)O2`, the Remaining activity in test [1] was 0.853; in test [2], 0.85; in test [3], 0.683; in test [4], 0.758; in test [5], 0.857. In test [6], this compound came in with a P-value of 3.16e-05. Further, the Relative activation in [7] turned out to be 0.529%.

Turning to `CCO[C@@H](Cc1ccc(OCCc2ccc(OS(C)(=O)=O)cc2)cc1)C(=O)O`, the Fold activation in [8] was 1.01; in [9], 1.11; in [10] it was 1.07; in test [12], 1.01. Moreover, the Remaining activity in [11] was 0.821. Moreover, the P-value in [13] is 0.0008. In test [14], the Relative activation amounted to 0.813%.

In the case of `COC(=O)c1sccc1S(=O)(=O)Nc1ccc(Nc2ccccc2)cc1OC`, the Remaining activity in test [15] was 0.51; in [16], 0.679; in test [17], 0.608; in test [18] it was 0.906; in test [19], 0.63. In [20], the P-value was 0.0012. This compound also gave a Relative activation in [21] of 0.476%.

Regarding `O=C(O)CCCc1cc2cc(Cl)ccc2n1S(=O)(=O)c1ccc2ncsc2c1`, the Fold activation in test [22] is 5.01; in test [23], 1.19; in test [26], 1.09; in test [27], 1.16. Moreover, the Remaining activity in test [24] was 0.743; in [25] it was 0.755. Moreover, the P-value in [28] came to 0.0075. Besides, the Relative activation in [29] turned out to be 1.07%.
